Measurements from US8337851B2, “Methods of monitoring the efficacy of anti-CD40 antibodies in treating a subject for a CD40-expressing cancer” (Novartis AG, priority 2005, dated 2012).
Entries after “also recorded” stand apart in the source; their conditions may differ.

Assays:
[1] = test system: B-CLL cells from patients; assay: RT-PCR timecourse of transcripts in B-CLL cells; format: cell-based, human; settings: 10 μg/mL with sCD40L, vs IgG1
Procedure: Cell pellets were collected at 0 hr (no CD40L), 1, 4 and 24 hr and lysed simultaneously at the end. RNA was isolated using the RNeasy kit, and cDNA was prepared using the ABI RT kit. Two-step RT-PCR was done with the genes shown in two separate reactions, based on TM of each set of oligos.

[2] = test system: human lymphocytes from normal subjects; assay: Proliferation of human lymphocytes; format: cell-based
[3] = test system: IM-9 tumor cells (a human multiple myeloma cell line); assay: Staged orthotopic IM-9 xenograft survival model; format: in vivo, SCID mice; settings: 0.1, 1 or 10 mg/kg i.p. once a week from 7 days after implantation
Procedure: SCID mice were inoculated subcutaneously with IM-9 tumor cells (a human multiple myeloma cell line expressing both CD40 and CD20) in 50% […]™ at 5×10^6 cells per mouse. In unstaged models, treatment was initiated one day after tumor implantation. […] Alternatively, tumor-bearing mice were injected with bortezomib at 0.5 mg/kg or 1 mg/kg intravenously once a week. Data were analyzed using the log-rank test.
In staged models, treatment was initiated 7 days after tumor cell implantation. […] Alternatively, tumor-bearing mice were injected with bortezomib at 0.5 mg/kg intravenously. Data were analyzed using the log-rank test.

[4] = test system: primary cancer cells from NHL patients; assay: ADCC against primary cancer cells; format: cell-based, human; settings: in vitro
Excerpt: (§1) 4, 2003, Nov. 26, 2003, and Apr. 27, 2004, and assigned U.S. Patent Application Nos. 60/517,337, 60/525,579, and 60/565,710, respectively, and International Patent Application No. PCT/US2004/037152, also entitled “Antagonist, Anti-CD40 Monoclonal Antibodies and Methods for Their Use,” filed Nov. 4, 2004; the contents of each of which are herein incorporated by reference in their entirety.

[5] = test system: B-CLL cells from patients; assay: Western blot of CD40L-mediated signaling (p-IKK α/β, p-ERK, p-Akt, p-p38) in B-CLL cells; format: cell-based, human; settings: 10 μg/ml
Procedure: In these experiments, 1.0×10^6 B-CLL cells from patients were stimulated with 1 μg/ml sCD40L (Alexis Corporation, Bingham, Nottinghamshire, UK). […] Cells were collected at 0 and 20 minutes. Phosphorylated IKKα (Ser180) and IKK β (Ser 181) (p-IKK α/β; NFkB pathway), phosphorylated ERK (p-ERK), phosphorylated Akt (p-Akt), and phosphorylated p38 MAPK (p-p38) were detected in cell lysates by Western blot.

[6] = test system: IM-9 tumor cells (a human multiple myeloma cell line); assay: Unstaged orthotopic IM-9 xenograft conditional survival model; format: in vivo, SCID mice; settings: 0.1, 1 or 10 mg/kg i.p. once a week from one day after implantation
[7] = test system: B-CLL cells from patients; assay: Western blot of apoptosis markers in B-CLL cells not stimulated with CD40L; format: cell-based, human; settings: 10 μg/ml; 1, 4 and 24 hours; no CD40L
Procedure: Cells were collected at 1, 4, and 24 hours. Western blot analysis with antibodies to cleaved PARP (apoptotic protein) and XIAP (anti-apoptotic protein) was conducted on cell lysates.

[8] = test system: B cells from normal human subjects; assay: In vitro CD40 ligand-mediated proliferation of normal B cells; format: cell-based
Excerpt: 2, 2000, and PCT International Application No. PCT/US01/30857, also titled “Human Anti-CD40 Antibodies,” filed Oct. 2, 2001, both of which are herein incorporated by reference in their entirety.
as §1

[9] = test system: IM-9 tumor cells (a human multiple myeloma cell line); assay: IM-9 multiple myeloma subcutaneous xenograft model; format: in vivo, SCID mice
Procedure: SCID mice were inoculated subcutaneously with IM-9 tumor cells (a human multiple myeloma cell line expressing both CD40 and CD20) in 50% […]™ at 5×10^6 cells per mouse. […] Alternatively, bortezomib dosing at 1 mg/kg intravenously occurred on days 5, 8, 12, and 15 after tumor implantation. […] Antibody dosing occurred on days 8, 14, and 21 post tumor implantation, while bortezomib dosing occurred on days 8, 11, 14 and 18 post tumor implantation. […] Data were analyzed using the log-rank test.

B-CLL cells = assay: Western blot of p-Akt, p-p38 MAPK, p-IKK α/β, p-ERK in B-CLL cells; format: cell-based, human
Procedure: To detect p38 MAPK, cells were cultured for 3 hr using the previously described conditions, with rhsCD40L being added in the last 20 min of incubation. Cells were processed as described above for data shown in FIG. 25. mAbs specific to human p-Akt and p-p38 MAPK were used to probe the resultant membranes, which were re-probed for AKT and p38 total protein, respectively.
Resultant membranes were probed using mAbs specific to human p-IKK α/β and p-ERK.

CLL patient samples = assay: p-p38 status in multiple B-CLL patient samples; format: cell-based, human; settings: CLL patients with high or low basal p-p38; CD40L stimulation
Excerpt: Patients with low basal p-p38 activity have a higher induction of phosphorylation by CD40L stimulation than patients with a higher basal expression.

[10] = test system: CLL cells obtained from patients with CLL; assay: CD40L-induced production of VEGF in CLL cells; format: cell-based, human
Excerpt: In another experiment, CD40L-induced production of VEGF in normal B cells and CLL cells obtained from patients with CLL is examined in a manner similar to that described above.

[11] = test system: B-CLL cells from patients; assay: Western blot of apoptosis and survival biomarkers in sCD40L-stimulated B-CLL cells; format: cell-based, human
Procedure: In these experiments, 1.0×10^6 B-CLL cells from patients were stimulated with 1 μg/ml sCD40L (Alexis Corporation, Bingham, Noffinghamshire, UK). […] Cleaved PARP, which is a biomarker of apoptosis, and Bcl-xl, Bcl-2, and cIAP1, which are biomarkers of survival, were detected in cell lysates by Western blot analysis using commercially available antibodies specific for these biomarkers.
In these experiments, 1.0×10^6B-CLL cells from patients were stimulated with 1 μg/ml sCD40L (Alexis Corp., Bingham, Nottinghamshire, UK). […] Cells were collected at 22-24 hours. Western blot analysis with antibodies to cleaved PARP, caspase-3, and Bcl-xl were conducted on cell lysates. Antibody against β-actin was used for detecting equal loading and transfer efficiency.

[12] = 3 hr culture, rhsCD40L in the last 20 min
[13] = patients #4 and #21, 10 μg/ml, 24 hours, 1 μg/ml sCD40L

CHIR-12.12: fully human anti-CD40 monoclonal antibody of the IgG1 isotype from hybridoma cell line 153.8E2.D10.D6.12.12 (ATCC PTA-5543)
RNA expression of CD40, CD40L, VEGF, TRAF2 and TRAF3 ([1]; 1, 4, 24 hr): inhibition of RNA expression
RNA expression of IL-6 [1]: no transcriptional changes
RNA expression of TRAF6 and Mcl-1 [1]: minor down-regulation
CD40L-induced lymphocyte proliferation [2]: inhibits CD40L-induced lymphocyte proliferation
induction of lymphocyte proliferation (agonist activity) ([2]; antibody alone): do not induce strong proliferation of human lymphocytes from normal subjects; also recorded: does not induce the proliferation of human peripheral blood lymphocytes
survival of tumor-bearing mice [3]: prolonged survival of tumor-bearing mice
killing of primary cancer cells by ADCC [4]: kill primary cancer cells from NHL patients by ADCC
phosphorylation of IKK α/β, ERK and Akt ([5]; 20 minutes, 1 μg/ml sCD40L, vs control IgG): significant inhibition of phosphorylation of IKK α/β, ERK, and Akt
p38 MAPK activation ([5]; samples with constitutively activated p38 MAPK): did not significantly inhibit p38 MAPK activation
survival of tumor-bearing mice [6]: prolonged the survival of tumor-bearing mice
apoptosis without CD40L stimulation (cleaved PARP, XIAP) [7]: did not trigger additional apoptosis of B-CLL cells
effect on proliferation of normal B cells [8]: act as antagonist anti-CD40 antibodies; also recorded: inhibit in vitro CD40 ligand-mediated proliferation of normal B cells
Ki67+ proliferating cells (histology) ([9]; 5 days after a single dose): significantly reduced the number of Ki67^+ proliferating cells
cleaved caspase 3 and cleaved PARP (histology) ([9]; 5 days after a single dose): increased the level of cleaved caspase 3 and cleaved PARP
tumor growth ([9]; first study, CHIR-12.12 1 and 10 mg/kg i.p. days 5, 12, 18, bortezomib 1 mg/kg i.v. days 5, 8, 12, 15): inhibited tumor growth at 15, 18, and 21 days post tumor implantation
tumor volume, CHIR-12.12 in combination with bortezomib ([9]; second study, CHIR-12.12 1 mg/kg i.p. plus bortezomib 1 mg/kg i.v.): the efficacy observed was additive; also recorded: a tumor volume reduction was observed on days 13, 16, 20, 23, and 26
CD40L-induced phosphorylation of IKK α/β and ERK ½ (B-CLL cells; [12]): inhibited the CD40L-induced phosphorylation of IKK α/β and ERK ½
rhsCD40L-enhanced phosphorylation of p38 MAPK (B-CLL cells; [12]): blocked this effect
CD40L activation of the AKT pathway (p-Akt) (B-CLL cells; in a number of samples): blocked this effect
p-p38 levels (CLL patient samples): lowered p-p38 levels back to basal phosphorylation
CD40L-induced production of VEGF [10]: inhibit CD40L-induced production of VEGF
cleaved PARP, caspase-3 and Bcl-xl, dose response (Western blot) ([11]; 0-20 μg/ml, 22-24 hours, 1 μg/ml sCD40L): induction of cleaved PARP and caspase-3 as well as reduction of Bcl-xl in a dose-dependent manner
lowest dose with effect on cleaved PARP, caspase-3 and Bcl-xl ([11]; 22-24 hours, 1 μg/ml sCD40L): ≥ 0.01 µg/mL
XIAP and Bcl-2 (Western blot) ([11]; patient #30, vs control IgG): reduced the expression of XIAP and Bcl-2
cleaved PARP (Western blot) ([11]; patient #30, vs control IgG): induced the expression of cleaved PARP
cleaved PARP (Western blot) ([11]; patient #31, vs control IgG): induced the expression of cleaved PARP
cyclin D1 and Bcl-xl (Western blot) ([11]; patient #31, vs control IgG): reduced the expression of cyclin D1 and Bcl-xl
Bcl-2 and TRAIL level (Western blot) [11, 13]: no changes of Bcl-2 and TRAIL level
Bcl-xl, XIAP and cIAP1 (Western blot) [11, 13]: reduction of Bcl-xl, XIAP and cIAP1
cleaved PARP (Western blot) ([11]; patients #4 and #21, 10 μg/ml, 24 hours, 1 μg/ml sCD40L, vs control IgG): induction of cleaved PARP
